What follows are molecules tested on NF-κB mediated transcription (assay: NF-κB driven β-lactamase reporter assay in ECV-304 NF-κB.βlaZ cells (AURORA CCF2 fluorescence)). Details: 10 μM compound; ECV-304 NF-κB.βlaZ cells stimulated with 10 ng/mL TNF-α or 100 pg/mL IL-1β, 6 hours at 37° C.; inhibition of maximum blue/green ratio.
Assay type: cell-based, human
Method in brief: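 Blue/green (460/530 nm, excitation 395 nm) CCF2 emission ratio quantified NF-κB-driven β-lactamase expression in the stably transfected endothelial-like ECV-304 clone 1E8.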
With `CCCCCCC(C)OS(=O)(=O)NC(=O)Nc1c(C(C)C)cccc1C(C)C` (stereo not drawn) [Example 94, Sulfamic acid, [[[2,6-bis(1-methylethyl)phenyl]amino]carbonyl]-, 1-methylheptyl ester,] the “Percent Inhibition at 10 μM” value was under 10%. With `CC1(C)OCC(NC(=O)NS(=O)(=O)NCC23CC4CC(CC(C4)C2)C3)C(c2ccccc2)O1` (stereo not drawn) [Example 104, Urea, N-(2,2-dimethyl-4-phenyl-1,3-dioxan-5-yl)-N′-[[(tricyclo[3.3.1.1^3,7]dec-1-ylmethyl)amino]sulfonyl]-, (4S-#cis/)-] the “Percent Inhibition at 10 μM” value was under 10%. In the case of `CC(C)c1cccc(C(C)C)c1OS(=O)(=O)NC(=O)OCCOC(=O)NS(=O)(=O)Oc1c(C(C)C)cccc1C(C)C` [Example 111, Carbamic acid, [[2,6-bis(1-methylethyl)phenoxy]sulfonyl]-, 1,2-ethanediyl ester], the “Percent Inhibition at 10 μM” value is reported as under 10%. In the case of `CC(C)c1cccc(C(C)C)c1OS(=O)(=O)NC(=O)OCC(COC(=O)NS(=O)(=O)Oc1c(C(C)C)cccc1C(C)C)OC(=O)NS(=O)(=O)Oc1c(C(C)C)cccc1C(C)C` [Example 112, Carbamic acid, [[2,6-bis(1-methylethyl)phenoxy]sulfonyl]-, 1,2,3-propanetriyl ester], the “Percent Inhibition at 10 μM” value is reported as under 10%.

Same assay, conditions: Homo sapiens, ECV-304, 6 h, 10 μM compound; ECV-304 NF-κB.βlaZ cells stimulated with 10 ng/mL TNF-α or 100 pg/mL IL-1β, 6 hours at 37° C.; inhibition of maximum blue/green ratio; read-out: Percent Inhibition at 10 μM
With `CCCCCCCCCCCCCCN(C)S(=O)(=O)NC(=O)Nc1c(C(C)C)cccc1C(C)C` [Example 84, Urea, N-[2,6-bis(1-methylethyl)phenyl]-N′-[(methyltetradecylamino)-sulfonyl]-] the inhibition at 10 µM was 44.8%. `CCCCCCCCCCOS(=O)(=O)NC(=O)Nc1c(C(C)C)cccc1C(C)C` [Example 90, Sulfamic acid, [[[2,6-bis(1-methylethyl)phenyl]amino]carbonyl]-, decyl ester] showed an inhibition at 10 µM of 13.6%. Work on `CCCCCCCCCCCCOS(=O)(=O)NC(=O)Sc1c(C(C)C)cccc1C(C)C` [Example 93, Carbamothioic acid, [(dodecyloxy)sulfonyl]-, S-[2,6-bis(1-methylethyl)-phenyl] ester] yielded an inhibition at 10 µM of 14.5%. Work on `CC(C)c1cccc(C(C)C)c1NC(=O)NS(=O)(=O)Oc1c(C(C)C)cccc1C(C)C` [Example 95, Sulfamic acid, [[[2,6-bis(1-methylethyl)phenyl]amino]carbonyl]-, 2,6-bis(1-methylethyl)phenyl ester] yielded an inhibition at 10 µM of 33.1%. `CCCCN(CCCC)S(=O)(=O)N(C)C(=O)Nc1c(C(C)C)cccc1C(C)C` [Example 99, Urea, N′-[2,6-bis(1-methylethyl)phenyl]-N-[(dibutylamino)sulfonyl]-N-methyl-] showed an inhibition at 10 µM of under 10%. For `CCCCCCCCCC(=O)NS(=O)(=O)Oc1c(C(C)C)cccc1C(C)C` [Example 106, Sulfamic acid, (1-oxodecyl)-, 2,6-bis(1-methylethyl)phenyl ester], the inhibition at 10 µM was 72.3%. Work on `CCCCCCC(C)OC(=O)NS(=O)(=O)Oc1c(C(C)C)cccc1C(C)C` (stereo not drawn) [Example 109, Carbamic acid, [[2,6-bis(1-methylethyl)phenoxy]sulfonyl]-, 1-methylheptyl ester] yielded an inhibition at 10 µM of 51.4%.

Same assay, conditions: Homo sapiens; 10 μM compound; ECV-304 NF-κB.βlaZ cells stimulated with 10 ng/mL TNF-α or 100 pg/mL IL-1β, 6 hours at 37° C.; inhibition of maximum blue/green ratio; read-out: Percent Inhibition at 10 μM
Work on `CCCCCCCCN(CCCCCCCC)S(=O)(=O)NC(=O)Oc1c(C(C)C)cccc1C(C)C` [Example 85, Carbamic acid, [(dioctylamino)sulfonyl]-, 2,6-bis(1-methylethyl)phenyl ester] yielded an inhibition at 10 µM of 45%. With `CC(C)c1cccc(C(C)C)c1OC(=O)NS(=O)(=O)N(C(C)C)C1CCCCC1` [Example 86, Carbamic acid, [[cyclohexyl(1-methylethyl)amino]sulfonyl]-, 2,6-bis(1-methylethyl)phenyl ester] the inhibition at 10 µM was 16%. `CCCCCCCCN(C)S(=O)(=O)NC(=O)Oc1c(C(C)C)cccc1C(C)C` [Example 87, Carbamic acid, [(methyloctylamino)sulfonyl]-, 2,6-bis(1-methylethyl)-phenyl ester] showed an inhibition at 10 µM of under 10%. `CCCCCCN(CCCCCC)S(=O)(=O)NC(=O)Oc1c(C(C)C)cccc1C(C)C` [Example 88, Carbamic acid, [(dihexylamino)sulfonyl]-, 2,6-bis(1-methylethyl)phenyl ester] showed an inhibition at 10 µM of under 10%. `CCCCCN(CCCCC)S(=O)(=O)NC(=O)Oc1c(C(C)C)cccc1C(C)C` [Example 89, Carbamic acid, [(dipentylamino)sulfonyl]-, 2,6-bis(1-methylethyl)phenyl ester] was tested, and the inhibition at 10 µM was 31.9%. `CC(C)c1cccc(C(C)C)c1OS(=O)(=O)NC(=O)Oc1c(C(C)(C)C)cccc1C(C)(C)C` [Example 91, Carbamic acid, [[2,6-bis(1-methylethyl)phenoxy]sulfonyl]-, 2,6-bis(1,1-dimethylethyl)phenyl ester] was tested, and the inhibition at 10 µM was 39.7%. Work on `CCCCCCCCCCCCOS(=O)(=O)NC(=O)Oc1c(-c2ccccc2)cccc1-c1ccccc1` [Example 92, Carbamic acid, [(dodecyloxy)sulfonyl]-, [1,1′:3′,1″-terphenyl]-2′-yl ester] yielded an inhibition at 10 µM of under 10%. For `CC(C)c1cccc(C(C)C)c1OC(=O)NS(=O)(=O)Oc1ccccc1` [Example 97, Carbamic acid, (phenoxysulfonyl)-, 2,6-bis(1-methylethyl)phenyl ester], the inhibition at 10 µM was under 10%. `Cc1cccc(C)c1OS(=O)(=O)NC(=O)Oc1c(C(C)C)cccc1C(C)C` [Example 98, Carbamic acid, [(2,6-dimethylphenoxy)sulfonyl]-, 2,6-bis(1-methylethyl)-phenyl ester] gave an inhibition at 10 µM of under 10%. With `CC(C)(C)c1cccc(C(C)(C)C)c1OC(=O)NS(=O)(=O)Oc1c(C(C)(C)C)cccc1C(C)(C)C` [Example 100, Carbamic acid, [[2,6-bis(1,1-dimethylethyl)phenoxy]sulfonyl]-, 2,6-bis(1,1-dimethylethyl)phenyl ester] the inhibition at 10 µM was 50%. Work on `CC(C)c1cccc(C(C)C)c1OC(=O)NS(=O)(=O)Oc1c(C(C)(C)C)cccc1C(C)(C)C` [Example 102, Carbamic acid, [[2,6-bis(1,1-dimethylethyl)phenoxy]sulfonyl]-, 2,6-bis(1-methylethyl)phenyl ester] yielded an inhibition at 10 µM of 20.6%. For `CC(C)c1cccc(C(C)C)c1OC(=O)NS(=O)(=O)Oc1c(F)cccc1F` [Example 103, Carbamic acid, [(2,6-difluorophenoxy)sulfonyl]-, 2,6-bis(1-methylethyl)-phenyl ester], the inhibition at 10 µM was under 10%. In the case of `CCCCCCCCCCCCCCCCOS(=O)(=O)NC(=O)Oc1c(C(C)C)cccc1C(C)C` [Example 107, Carbamic acid, [(hexadecyloxy)sulfonyl]-, 2,6-bis(1-methylethyl)phenyl ester], the inhibition at 10 µM is reported as under 10%. For `COc1cccc(OC)c1OC(=O)NS(=O)(=O)Oc1c(C(C)C)cccc1C(C)C` [Example 108, Carbamic acid, [[2,6-bis(1-methylethyl)phenoxy]sulfonyl]-, 2,6-dimethoxyphenyl ester], the inhibition at 10 µM was under 10%. In the case of `CC(C)c1cc([N+](=O)[O-])cc(C(C)C)c1OC(=O)NS(=O)(=O)Oc1c(C(C)C)cccc1C(C)C` [Example 110, Carbamic acid, [[2,6-bis(1-methylethyl)phenoxy]sulfonyl]-, 2,6-bis(1-methylethyl)-4-nitrophenyl ester], the inhibition at 10 µM is reported as 15.5%. `CC(C)c1cc(Br)cc(C(C)C)c1OC(=O)NS(=O)(=O)Oc1c(C(C)C)cccc1C(C)C` [Example 113, Carbamic acid, [[2,6-bis(1-methylethyl)phenoxy]sulfonyl]-, 4-bromo-2,6-bis(1-methylethyl)phenyl ester] gave an inhibition at 10 µM of under 10%.

From patent US20020183384A1, “Methods of treating nuclear factor-kappa B mediated diseases and disorders” (priority 2001, published 2002)
